In patent US8722654B2, “Lipoxin analogs as novel inhibitors of angiogenesis” (The Brigham and Women's Hospital, Inc., priority 2001, dated 2014):

Tests used:
Format in all cases: in vivo, BALB/c mice
[1] = system: suture-induced corneal NV; test: Suture-induced inflammatory corneal angiogenesis (HA and LA)
Method: (§1) Six to eight-week-old male BALB/c (Taconic Farms, Germantown, N.Y.) mice were used in all experiments. All experimental protocols were approved by the Schepens Eye Research Institute Animal Care and Use Committee, and all animals were treated according to the Association for Research in Vision and Ophthalmology Statement for the Use of Animals in Ophthalmic and Vision Research.
(§2) The standard model for induction of inflammatory corneal NV is associated with development of intrastromal vessels in close association with a mixed-cell (primarily neutrophilic) infiltrate. (43,44) Three interrupted sutures (11-0 nylon, Sharpoint; Vanguard, Houston, Tex.) were placed intrastromally with two stromal incursions extending over 120° of the corneal circumference each to induce inflammatory corneal NV, which is also associated with significant LA, as described previously. (43) The corneas were followed by slit-lamp biomicroscopy for corneal NV development. […]
(§3) BALB/c mice were randomized to receive ATLa, or vehicle (normal saline) by subconjunctival injection in a masked fashion after suture or hydron pellet placement. […] (49) The physical properties were monitored routinely via LC/MS/MS matching the reported biological and physical properties prior to analysis in present experiments.
(§4) Full thickness corneal tissue or 8 μm-frozen sections were fixed in acetone for 15 minutes at room temperature. […] Finally, the samples were covered with mounting medium (Vector Laboratories, Burlingame, Calif.) and analyzed by epifluorescence microscopy (Eclipse E800; Nikon, Tokyo, Japan). […]
To quantify corneal angiogenesis, digital pictures of corneal flat-mounts were taken using an image analysis system (Spot Image Analysis, Diagnostic Instruments, Sterling Heights, Mich.). The areas covered by CD31^high/LYVE-1^−-vessels (blood vessels) or CD31^lowLYVE-1^high vessels (lymphatics) were measured morphometrically using NIH Image J software (version 1.34s; http://rsb.info.nih.gov/ij). […] The vessel density was calculated by the proportion of neovascularized area to the whole corneal area.

[2] = system: TNF-α; test: TNF-α mRNA in inflamed corneas, real-time PCR
Method: as §2
as §3, with “experiments. […]” for “experiments.”
(§5) 1 μl of total cDNA, synthesized from 400 ng total RNA with random hexamers using Superscript™ III Reverse Transcriptase (Invitrogen, Carlsbad, Calif.), was loaded in each well and assays were performed in triplicates. […] The results were analyzed by comparative threshold cycle (CT) method. The relative expression level of each sample was expressed as fold change from normal control.

[3] = system: inflamed corneas; test: Neutrophil and macrophage infiltration in suture-inflamed corneas
Method: as §1
The standard model for induction of inflammatory corneal NV is associated with development of intrastromal vessels in close association with a mixed-cell (primarily neutrophilic) infiltrate. (43,44) Three interrupted sutures (11-0 nylon, Sharpoint; Vanguard, Houston, Tex.) were placed intrastromally with two stromal incursions extending over 120° of the corneal circumference each to induce inflammatory corneal NV, which is also associated with significant LA, as described previously. (43) The corneas were followed by slit-lamp biomicroscopy for corneal NV development. NV was graded between 0 and 3, with increments of 0.5, using a grid system per each corneal quadrant based on the centripetal extent of the neovascular branches from the limbus. Scores for each quadrant then summed to derive the NV index (range 0 to 12) for each eye, as previously described. (43)
BALB/c mice were randomized to receive ATLa, or vehicle (normal saline) by subconjunctival injection in a masked fashion after suture or hydron pellet placement. The compounds were administered at a dose of 100 ng/10 μl per mouse every 48 h after suture or pellet placed. ATLa was synthesized as described previously. (49) The physical properties were monitored routinely via LC/MS/MS matching the reported biological and physical properties prior to analysis in present experiments.
Full thickness corneal tissue or 8 μm-frozen sections were fixed in acetone for 15 minutes at room temperature. To block non-specific staining, anti-FcR mAb ([…], FcγIII/II receptor) or 10% goat serum was used before primary antibodies or isotype-matched control antibodies were applied at 4° C. overnight. Thereafter, samples were incubated with secondary antibodies at RT. Each step was followed by three thorough washings in PBS for 5-10 minutes. Finally, the samples were covered with mounting medium (Vector Laboratories, Burlingame, Calif.) and analyzed by epifluorescence microscopy (Eclipse E800; Nikon, Tokyo, Japan). The following antibodies were used: FITC-conjugated rat anti-mouse CD31 (Santa Cruz Biotechnology, Santa Cruz, Calif.), purified rat anti-mouse neutrophil (NIMP-R14, Abcam, Cambridge, Mass.), purified rat anti-mouse F4/80 (Novus Biologicals, Littleton, Colo.) and purified rabbit anti-mouse LYVE-1 (Abcam, Cambridge, Mass.). The secondary antibodies were Rodamine-conjugated donkey anti-rabbit IgG and Rodamine-conjugated goat anti-rat IgG (Santa Cruz Biotechnology, Santa Cruz, Calif.). Isotype controls included FITC-conjugated rat IgG2a, purified rat IgG2b, and purified rabbit IgG (Santa Cruz Biotechnology, Santa Cruz, Calif.).

[4] = system: VEGF-D; test: VEGF-D mRNA in inflamed corneas, real-time PCR; conditions: vs vehicle-treated controls
Method: as §2
as §3, with “experiments. […]” for “experiments.”
as §5

[5] = system: VEGFR-3; test: VEGFR-3 mRNA in inflamed corneas, real-time PCR; conditions: vs vehicle-treated controls
Method: as §2
as §3, with “experiments. […]” for “experiments.”
as §5

[6] = system: VEGFR-2; test: VEGFR-2 mRNA in inflamed corneas, real-time PCR; conditions: 24 h and 72 h after suture placement
Method: as §2
as §3, with “experiments. […]” for “experiments.”
as §5

[7] = system: IL-1β-induced corneal HA and LA; test: Corneal micropocket assay, IL-1β pellet; conditions: IL-1β micropellet
Method: (§6) The corneal micropocket assay in mice and quantification of the resultant NV has been described previously. (45,46) In brief, 0.3 μl of hydron pellets (IFN Sciences, New Brunswick, N.J.) containing 30 ng of murine IL-1β (R&D Systems, Minneapolis, Minn.) or 200 ng of VEGF-A (gift from BRB Preclinical Repository, National Cancer Institute) were prepared and implanted into the corneal stroma of male BALB/c mice. After 7 days the animals were sacrificed and the corneas were harvested for quantitative analysis of HA and LA.
as §3, §4
(§7) To quantify corneal angiogenesis, digital pictures of corneal flat-mounts were taken using an image analysis system (Spot Image Analysis, Diagnostic Instruments, Sterling Heights, Mich.). […]

[8] = system: IL-1α; test: IL-1α mRNA in inflamed corneas, real-time PCR; conditions: 24 h and 72 h
Method: as §2
as §3, with “experiments. […]” for “experiments.”
as §5

[9] = system: IL-1β; test: IL-1β mRNA in inflamed corneas, real-time PCR; conditions: vs vehicle-treated controls
Method: as §2
as §3, with “experiments. […]” for “experiments.”
as §5

[10] = system: VEGF-C; test: VEGF-C mRNA in inflamed corneas, real-time PCR; conditions: 24 h and 72 h after suture placement
Method: as §2
as §3, with “experiments. […]” for “experiments.”
as §5

[11] = system: mouse IL-1 beta; test: IL-1β protein in inflamed corneas, ELISA
Method: FIG. 13, ATLa Regulates IL-1β. Mice were treated at 0 h and 48 h after suture-placement with ATLa or vehicle. Whole corneas were excised at 72 h, and subsequently freeze-thawed 3 times. Cornea was then homogenized using a pellet pestile motor with additional protease inhibitors. Homogenates were centrifuged at 12,000 rpm for 5 minutes and the supernatant was assayed for mouse IL-1 beta via ELISA (eBioscience, USA) according to the manufacturer's instructions.
as §2, §3

[12] = system: VEGF-A; test: VEGF-A mRNA in inflamed corneas, real-time PCR; conditions: 24 h and 72 h after suture placement
Method: as §2
as §3, with “experiments. […]” for “experiments.”
as §5

[13] = system: VEGF-A-induced corneal HA and LA; test: Corneal micropocket assay, VEGF-A pellet; conditions: VEGF-A micropellet
Method: as §6, §3, §4, §7

[14] = 72 h after suture placement, n=3

For COC(=O)CCC[C@H](O)[C@H](O)/C=C/C=C/C=C\C=C\[C@H](O)COc1ccc(F)cc1 [ATLa, 15-epi-16-(para-fluoro)-phenoxy-lipoxin A4 methyl ester], the “growth of corneal neovessels, slit lamp biomicroscopy” value ([1]; 2-week time course) was “significant suppression of the angiogenic response”, the “density of lymphatic vessels” value ([1]; day 14, vs vehicle) was “not observed” and the BV density ([1]; day 14 after suture placement, n=6) was 8.26±0.63%. For the same compound, the “increase in TNF-α expression” value ([2]; 24 h) was “significantly suppressed”, the “increase in TNF-α expression” value ([2]; 72 h) was “not at 72 h” and the “inhibition of neutrophils recruitment” value ([3]; 24 and 72 h, 100 ng subconjunctival at 0 and 48 h) was about 30%. For the same compound, the neutrophils ([3]; 24 h after suture placement, n=3) was 53±1 cells/section, the “reduction in macrophage infiltration” value ([3]; 72 h, vs vehicle) was 25-40% and the macrophage [3, 14] was 46±5 cells/section. For the same compound, the neutrophils [3, 14] was 34±5 cells/section, the “mRNA expression of VEGF-D” value [4] was “not significantly altered” and the “mRNA expression of VEGFR-3” value [5] was “not significantly altered”. The “mRNA expression of VEGFR-2” value [6] was “lower mRNA expressions”, the LA ([7]; day 7) was “no significant reduction” and the BV density ([7]; day 7, n=4) was 16.1±3.0%. For the same compound, the “expression of IL-1α” value [8] was “not significantly altered”, the “reduction in the increase of IL-1β expression levels” value [9] was “more than 50%” and the “mRNA expression of VEGF-C” value [10] was “lower mRNA expressions”. The “IL-1 beta in corneas” value ([11]; 72 h, treated at 0 h and 48 h, n=4) was 21.3 ± 0.8 pg/mL, the “decrease in IL-1β protein level” value ([11]; vs vehicle-treated group) was 70% and the “mRNA expression of VEGF-A” value [12] was “lower mRNA expressions”. The LA ([13]; day 7) was “no significant reduction” and the BV density ([13]; day 7, n=4) was 5.9±0.4%.
